Patent US11680885B2, “Method, process, composition and kit for measuring concentration of molecules dissolved in the continuous phase of a colloid” (UNIVERSIDAD TÉCNICA FEDERICO SANTA MARÍA, priority 2017, dated 2023)

Test: Measurement of concentration of molecules dissolved in the continuous phase of the standard AuNP@MUA colloid (centrifugation, RP-HPLC with UV-visible detection)
Assay type: physicochemical
Conditions: n=3; for concentration in the control samples, equivalent to the continuous phase of the colloid: control samples: particle-free solution extracted from the colloid, 2.00 μM molecule added; for concentration of molecules dissolved in the continuous phase of the standard AuNP@MUA colloid: test samples, after incorporating 2.00 μM of the molecule into the colloid, centrifuged 24,000×g 15 min, average
Experimental: In general terms, the concentration of molecules dissolved in a fraction of the particle free colloid is measured. To evaluate this, in a first part the method obtains a test sample and a control sample. The test sample contains molecules dissolved in a colloid, and the control sample contains the same concentration of molecules dissolved in a particle-free solution extracted from the same colloid used to obtain the test sample. […] Subsequently, the samples are exposed to a condition that allows the particles of the test sample to be concentrated. […] Then, a particle-free volume is recovered from the test sample. The fraction recovered is equivalent to the continuous phase of the colloid and includes the effect of the interaction between molecules and particles. Finally, the concentration of molecules dissolved in the continuous phase of the colloid is measured using equation 1:
[formula] where [FC] corresponds to the concentration of molecules dissolved in the continuous phase of a colloid, [ ]0 corresponds to the value of the concentration of molecules used during the sampling steps, @mp corresponds to the empirical value of a parameter proportional to the number of molecules contained in a volume of particle-free test sample, and @mc corresponds to the empirical value of the same parameter proportional to the number of molecules contained in a volume of control sample. The concentration value obtained from this equation is equivalent to the concentration of molecules dissolved in the continuous phase of the colloid. […]
[formula] • where [FC] corresponds to the concentration of molecules dissolved in the continuous phase of a colloid, [ ]0 corresponds to the value of the concentration of molecules used during the sampling steps, @mp corresponds to the empirical value of a parameter proportional to the number of molecules contained in a volume of particle-free test sample obtained in step f), and @mc corresponds to the empirical value of the same parameter, but measured in the control sample obtained in step g).

## CN(C)c1ccc2nc3ccc(=[N+](C)C)cc-3sc2c1 [methylene blue]
  concentration in the control samples, equivalent to the continuous phase of the colloid: 2.00 µM
  concentration of molecules dissolved in the continuous phase of the standard AuNP@MUA colloid: 1.17 µM

## CN(C)c1ccc(N=Nc2ccc(S(=O)(=O)[O-])cc2)cc1.[Na+] [methyl orange]
  concentration in the control samples, equivalent to the continuous phase of the colloid: 2.00 µM
  concentration of molecules dissolved in the continuous phase of the standard AuNP@MUA colloid: 2.00 µM
